In patent US10640468B2, “1-(4-(2-((1-(3,4-difluorophenyl)-1H-pyrazol-3-Yl)methoxy)ethyl)piperazin-1- Yl)ethanone salts” (ESTEVE PHARMACEUTICALS S.A., priority 2015, dated 2020):
Values joined by “and” are separate entries in the source; they are usually repeats but may differ in a detail not shown here. Equal entries are not always repeated. Structures can show the parent of a compound that is named as a salt.

Legend:
[1] = acid; cited from earlier work
[2] = pKa of the free base compound; type: physicochemical
[3] = Solubility study of Example 0 in solvents (volumes needed to dissolve the solid); type: physicochemical
Description: Previously a solubility study was performed with compound Example 0. The results are shown in Table 1 wherein number of volumes needed to dissolve the solid in the corresponding solvent at room temperature is shown. If at 50 volumes, dissolution was not observed at room temperature, mixture was heated to reflux temperature.

[4] = Thermodynamic solubility at pH 7.4; type: physicochemical; conditions: maleate
Description: General protocol for thermodynamic solubility at pH 7.4 and pH 2 are described. • A) Thermodynamic Solubility at pH 7.4
Phosphate buffer at pH 7.4 (25 mM) was prepared as follows:
A solution 25 mM of Na2HPO4.12H2O (for 1 L of water, weight 8.96 g) was prepared
A solution 25 mM de KH2PO4 (for 1 L of water weight 3.4 g) was prepared.
Disodium phosphate solution (812 mL) and potassium phosphate (182 mL) solution were mixed and pH checked to be 7.4.
Equipment • Precision analytical balance Mettler Toledo AT20. • Analytical balance Mettler Toledo PJ300. • Liquid chromatograph Waters Alliance 2695. • Stirrer Thermomixer Control of Eppendorf a 25° C. y 1250 rpm • pHmeter with combined semi-micro electrode.
Around 4 mg of compound in an HPLC vial (by duplicate) was dissolved in 1 mL of buffer solution. After stirring in Thermomixer Comfort system for 24 hours at 25° C., in order to achieve thermodynamic equilibrium, solution was centrifuged at 3000 rpm for 15 minutes.
The resulting upper layer was collected with a glass pipette and transferred to the HPLC vials in order to inject them (10 μL) directly to the HPLC instrument.
Standards were made in methanol to ensure overall compound solubility. Preparation of standard calibrators is illustrated below:
Sol.A: 4 mg in 1 mL methanol (4000 μg/mL)
Sol.B: 0.5 mL Sol.A to 5 mL with methanol (400 μg/mL)
Sol.C: 1 mL Sol.B to 10 mL with methanol (40 μg/mL)
Sol.D: 5 mL […] to 50 mL with methanol (4 μg/mL)
Sol.E: 4 mL Sol.D to 10 mL with methanol (1.6 μg/mL)
Calibration curve was created through 10 μL injection of standards, beginning with the more diluted standard. Blanks were also injected, for checking the absence of contamination.
10 μl of test substance were injected, by duplicate, and the average peak area interpolated in the calibration curve (see Tables Examples below).
Chromatographic Conditions • Column: XBridge C18 (or similar) 2.5 μm 4.6×50 mm • Temperature: 35° C. • Mobile phase: ACN/ammonium bicarbonate 10 mM. • Gradient: 0-3.5 min: from 15% CAN to 95% CAN • 3.5-5 min: 95% ACN • 5-6 min: 95 a 15% ACN • 6-8 min: 15% ACN • Flow: 1.5 mL/min • Detection: around the maximum UV wavelength. • B) Thermodynamic Solubility at pH 2

[5] = Pharmacokinetics after single oral administration to male Wistar rat; type: in vivo
Description: The pharmacokinetics of Example 1 and 2 were tested using the following protocol:
Male Wistar rats weighing 250 to 300 g (±20) supplied by Harlan were used. Water and food was available ad libitum throughout the study.
Administration and Sample Collection
Two rats (R1 and R2) were used in the pharmacokinetic oral studies.
A single dose of tested compound was administered by oral gavage [10 mg/kg as free base (Example 0)] in 0.5% hydroxypropyl methylcellulose (1 mg/ml). From each rat, serial blood samples were collected at 15 and 30 min, 1, 2, 3, 5, 7 and 24 h.
Blood was collected from the saphenous veins into heparinized tubes. Plasma was obtained by blood centrifugation at 4° C. and 2280×g for 10 min and kept at −80° C. until analysis.
Tested compound concentration in plasma samples was determined by least-squares linear regression using a ten-point calibration curve. The calibration curve was prepared in blank plasma from a working solution of 1 mg/ml in DMSO.
Samples were thawed at room temperature on the day of analysis. After plasma protein precipitation of samples and calibration standards with acetonitrile (1:4.3; v/v), the mixture was vortexed and centrifuged (4° C. and 16090×g for 10 min).
Tested compound plasma concentrations were determined by high performance liquid chromatography-triple quadrupole mass spectrometry (HPLC-MS/MS) through the following method:
Column: Atlantis® T3 column (2.1×100 mm, 3 μm) (Waters).
Mobile phase: A: 0.0155% Formic water • B: 0.0155% Formic Acetonitrile
Autosampler wash: Solvent 1:Acetonitrile • Solvent 2: 5% Acetonitrile+95% Water
Standard pharmacokinetic parameters, such as area under the curve (AUC), peak plasma concentration (Cmax), time to peak concentration (tmax), oral bioavailability (F), total plasma clearance (Cl), volume of distribution at steady-state (Vss), mean residence time (MRT) and terminal half-life (t1/2), were determined by non-compartmental analysis of the plasma concentration-time curves (Phoenix v. 6.2.1.51, Pharsight, C A).

[6] = animal 1, 10 mg/kg oral, maleate
[7] = animal 2, 10 mg/kg oral, maleate
[8] = mean of 2 rats, 10 mg/kg oral, listed as example 2, maleate, 10 mg/kg
[9] = mean of 2 rats, 10 mg/kg oral, maleate, 10 mg/kg

Compound `CC(=O)N1CCN(CCOCc2ccn(-c3ccc(F)c(F)c3)n2)CC1` (as salt: hydrochloride) [Example 1] has a melting point of 155 to 157 °C.
With `CC(=O)N1CCN(CCOCc2ccn(-c3ccc(F)c(F)c3)n2)CC1` (as salt: maleate) [Example 2] the melting point was 160 to 162 °C.
For `CCS(=O)(=O)O` [Ethanesulfonic acid], the pKa1 [1] is given as 2.05.
In the case of `O=[N+]([O-])O` [Nitric acid], the pKa1 [1] is given as “Strong”.
In the case of `O=S(=O)(O)c1ccccc1` [Benzensulphonic acid], the pKa1 [1] is listed as 0.7.
In the case of `Br` [Hydrobromic acid], the pKa1 [1] is listed as “Strong”.
For `CCCCCCCCCC(=O)O` [Capric acid], the pKa1 [1] is listed as 4.9.
In the case of `CCCCCC(=O)O` [Caproic acid], the pKa1 [1] is given as 4.88.
With `CC(=O)N1CCN(CCOCc2ccn(-c3ccc(F)c(F)c3)n2)CC1` [Example 0, 1-(4-(2-((1-(3,4-difluorophenyl)-1H-pyrazol-3-yl)methoxy)ethyl)piperazin-1-yl)ethanone] the pKa [2] was 6.37, the “number of volumes needed to dissolve the solid” value (shortened to “number of volumes needed”) ([3]; CH2Cl2, room temperature) was 3 volumes and the “number of volumes needed” value ([3]; CH3CN, room temperature) was 15 volumes. For the same compound, the “number of volumes needed” value ([3]; EtOH, room temperature) was 4 volumes, the “number of volumes needed” value ([3]; H2O, room temperature, heated to reflux at 50 volumes, no dissolution observed) was > 50^[1] volumes and the “number of volumes needed” value ([3]; MIBK, room temperature) was 17 volumes. For the same compound, the “number of volumes needed” value ([3]; THF, room temperature) was 4 volumes.
In the case of `CC(=O)N1CCN(CCOCc2ccn(-c3ccc(F)c(F)c3)n2)CC1` [Example 2, maleate], the “Conc. Mean” value ([4]; pH 7.4, mean of 4 injections) is reported as 4468.706 µg/mL, the Conc. ([4]; pH 7.4, single HPLC injections of duplicate vials) is reported as 4593.8 µg/mL and 4408.7 µg/mL and 4338.8 µg/mL and 4533.6 µg/mL and the AUC [5, 6] is reported as 2227 ng·h/mL. For the same compound, the Cmax [5, 6] was 1.386 µg/mL, the t1/2 [5, 6] was 102 min and the F ([5]; animal 1, 10 mg/kg oral, mean AUC after i.v. administration used for calculation, maleate) was 50%. The AUC [5, 7] was 1768 ng·h/mL, the Cmax [5, 7] was 1.039 µg/mL and the t1/2 [5, 7] was 72 min. For the same compound, the tmax [5, 7] was 30 min, the F ([5]; animal 2, 10 mg/kg oral, mean AUC after i.v. administration used for calculation, maleate) was 40% and the AUC [5, 8] was ~2000 ng·h/mL. The tmax [5, 8] was 22.8 min, the AUC [5, 9] was 1997 ng·h/mL and the “t1/2 (terminal half-life)” value [5, 9] was 90 min. For the same compound, the tmax [5, 9] was 24 min, the “F (oral bioavailability)” value ([5]; mean of 2 rats, 10 mg/kg oral, mean AUC after i.v. administration used for calculation, maleate, 10 mg/kg) was 45% and the Plasma concentration ([5]; rat R1, 0.5 h, 10 mg/kg oral, maleate, 10 mg/kg) was 1.251 µg/mL. For the same compound, the Plasma concentration ([5]; rat R1, 1 h, 10 mg/kg oral, maleate, 10 mg/kg) was 0.907 µg/mL, the Plasma concentration ([5]; rat R1, 2 h, 10 mg/kg oral, maleate, 10 mg/kg) was 0.289 µg/mL and the Plasma concentration ([5]; rat R1, 3 h, 10 mg/kg oral, maleate, 10 mg/kg) was 0.157 µg/mL. It also gave a Plasma concentration ([5]; rat R1, 5 h, 10 mg/kg oral, maleate, 10 mg/kg) of 0.045 µg/mL, a Plasma concentration ([5]; rat R1, 7 h, 10 mg/kg oral, maleate, 10 mg/kg) of 0.041 µg/mL and a Plasma concentration ([5]; rat R2, 0.5 h, 10 mg/kg oral, maleate, 10 mg/kg) of 1.039 µg/mL. The Plasma concentration ([5]; rat R2, 1 h, 10 mg/kg oral, maleate, 10 mg/kg) was 0.639 µg/mL, the Plasma concentration ([5]; rat R2, 2 h, 10 mg/kg oral, maleate, 10 mg/kg) was 0.317 µg/mL and the Plasma concentration ([5]; rat R2, 3 h, 10 mg/kg oral, maleate, 10 mg/kg) was 0.095 µg/mL. The Plasma concentration ([5]; rat R2, 5 h, 10 mg/kg oral, maleate, 10 mg/kg) was 0.075 µg/mL and the Plasma concentration ([5]; rat R2, 7 h, 10 mg/kg oral, maleate, 10 mg/kg) was 0.013 µg/mL.
For `CCCCCCCC(=O)O` [Caprylic acid], the pKa1 [1] is listed as 4.89.
